Square brackets hold non-standard residues; d marks the D form. Peptide text beside a SMILES is read from it. * marks the point of attachment. Cys(free,S-linked) = N[C@@H](CS*)C(=O)O; d2Thi = N[C@H](Cc1cccs1)C(=O)O; dAbu = CC[C@@H](N)C(=O)O
Columns and labels:
[1] = system: normal rats (Sprague Dawley); test: In vivo efficacy in normal rat model after a single dose (plasma parathyroid hormone, serum calcium); settings: 3 mg/kg intravenous single dose; for serum calcium level: FIG. 3; for plasma parathyroid hormone level: within 4 h, FIG. 2
Excerpt: 3.4 Evaluation of In Vivo Efficacy of Some of the Compounds Disclosed Herein in a Normal Rat Model after a Single Dose 3.4.1 Objective: To Evaluate the Efficacy of the Test Compounds in Reducing Plasma Parathyroid Hormone Levels after a Single Dose in a Normal Rat Model.
SPF normal adult rats (Sprague Dawley, or SD) with weight of 250-350 g were fed with normal diet in an animal room for 7 days. Rats were randomized into groups of 6, half female and half male, and numbered. One day before the start of treatment, 540 μL of blood was collected from each rat, and the plasma parathyroid hormone level and the serum calcium concentration were measured as baseline. The plasma was separated by K2-EDTA anticoagulation. Blood was collected through jugular vein and preserved on ice after collection. The whole blood was centrifuged at 6,800 rpm for 6 minutes at 2-8° C. The supernatant, i.e., the plasma, was collected and preserved at 2-8° C. For serum separation, blood was collected through jugular vein, let stand at room temperature for 1 h, and centrifuged at room temperature at 3,500 rpm for 10 min. The supernatant, i.e., the serum, was collected and preserved at room temperature. The animals were fasted overnight with free access to water the day before treatment. The day after blood sampling, example compounds 13, 17, 31 and etelcalcetide (AMG-416) were dissolved in a phosphate buffered saline (PBS, Gibco). The rats were intravenously administered with example compounds 13, 17, 31 or etelcalcetide 3 mg/kg or an equal volume of PBS buffer. Subsequently, blood samples were collected as per the following procedures for measuring the parameters. 100 μL of blood was collected at 1 h, 2 h and 4 h post-dose, and the plasma was separated according to the procedures above. The plasma parathyroid hormone levels were measured using the Rat Intact PTH ELISA Kit (Quidel—Immunotopics, Cat. #: 60-2500; ELISA: Enzyme-linked immunosorbent assay) according to the kit instructions. The detailed procedures are as follows: using the streptavidin-preplated reaction strips provided in the kit, 25 μL of reference standard, control or plasma samples were added to the wells. Biotinylated rat parathyroid hormone antibody and rat parathyroid hormone/HRP binding antibody were mixed at a ratio of 1:1, and 100 μL of the mixed solution was added to each well. The reaction strip was sealed with a sealing film, wrapped with an aluminum foil for storage in dark, and shaken on a horizontal shaker at room temperature for 3 h at a rotation speed of 220 rpm. The solutions in the wells were discarded. 350 μL of cleaning working solution was added to the wells for washing and then discarded; 5 washes were performed with the same procedures. Finally the wells were dried. To each well was added 150 μL of horseradish peroxidase ELISA substrate. The reaction strip was sealed with a sealing film, wrapped with an aluminum foil for storage in dark, and shaken on a horizontal shaker at room temperature for 30 min at a rotation speed of 180-220 rpm. 100 μL of ELISA terminating solution was added to each well, and the strip was shaken at 180-220 rpm for 1 min on a horizontal shaker at room temperature. The absorbance at 450 nm in each well was detected within 10 min after the addition of the ELISA terminating solution, while the absorbance at 620 nm was subtracted as background. A mixture of horseradish peroxidase ELISA substrate 150 μL and ELISA terminating solution 100 μL was used as the blank control in the absorbance detection. A standard curve according to the absorbance of the reference standard was plotted, and the actual plasma parathyroid hormone concentration was calculated according to the absorbance of other samples and the standard curve. The determination of the serum calcium concentration was conducted according to the procedures of the relevant kit.

5/6 nephrectomized rats = test: In vivo efficacy in 5/6 nephrectomized rat model after continuous administration (plasma parathyroid hormone, serum calcium)
Excerpt: 3.5.1 Objective: to evaluate the efficacy of some of the compounds disclosed herein in reducing plasma parathyroid hormone level and serum calcium level after continuous administration in a 5/6 nephrectomized rat model.
The rats were adapted. After anesthesia, ⅔ of the left kidney was surgically resected, and after 1 week of recovery, the right kidney was resected to establish the 5/6 nephrectomized rat model. After the second resection, the animals were normally fed for 2 weeks, tested for creatinine (CREA) and plasma parathyroid hormone level, and randomized as per the parathyroid hormone level into 4 groups of 10, including normal saline group, compound 17—low dose group, compound 17—high dose group and etelcalcetide group. After randomization, the normal saline group, compound 17—low dose group, compound 17—high dose group and etelcalcetide group were respectively administered with 1 dose of normal saline, 1 mg/kg of compound 17, 2 mg/kg of compound 17 and 1 mg/kg of etelcalcetide through the tail vein daily for 28 days. During the treatment period, parameters such as animal weight, plasma parathyroid hormone level and serum calcium were detected. The first day of treatment was taken as day 1.

SMILES | serum calcium level [1] | plasma parathyroid hormone level [1] | plasma parathyroid hormone level compared with the normal saline group (5/6 nephrectomized rats; 1 mg/kg and 2 mg/kg daily via tail vein for 28 days) | suppression of plasma parathyroid hormone level versus etelcalcetide at the same dose (5/6 nephrectomized rats; 1 mg/kg, 6 h and 16 h post-dose, FIG. 4) | serum calcium reduction (5/6 nephrectomized rats; after administration on days 1, 14 and 28) | persistence to reduce serum calcium levels versus etelcalcetide at the same dose (5/6 nephrectomized rats; day 28) | maximal reduction in serum calcium versus etelcalcetide at the same dose (5/6 nephrectomized rats; days 1, 14 and 28, FIG. 5) | extent of serum calcium reduction with the period of treatment (5/6 nephrectomized rats; minimum of serum calcium on days 14 and 28 compared to day 1)
CC(=O)N[C@H](CSSC[C@H](N)C(=O)O)C(=O)N[C@H](CCCNC(=N)N)C(=O)N[C@H](CCCNC(=N)N)C(=O)N[C@H](Cc1cccs1)C(=O)N[C@H](CCCNC(=N)N)C(=O)N[C@H](C)C(=O)N[C@H](CCCNC(=N)N)C(N)=O [Compound 13, Ac-c(C)-r-r-(D-2-Thi)-r-a-r-NH2] (Ac-[dC](Cys(free,S-linked))[dR][dR][d2Thi][dR][dA][dR]-NH2) | corresponding reduction | completely reduced | – | – | – | – | – | –
CC[C@@H](NC(=O)[C@@H](CCCNC(=N)N)NC(=O)[C@@H](CCCNC(=N)N)NC(=O)[C@@H](CSSC[C@H](N)C(=O)O)NC(C)=O)C(=O)N[C@H](CCCNC(=N)N)C(=O)N[C@H](C)C(=O)N[C@H](CCCNC(=N)N)C(N)=O [Compound 17, Ac-c(C)-r-r-(D-Abu)-r-a-r-NH2] (Ac-[dC](Cys(free,S-linked))[dR][dR][dAbu][dR][dA][dR]-NH2) | corresponding reduction | completely reduced | reduced the plasma parathyroid hormone level in rats in a dose dependent manner | slightly superior or comparable magnitude to that of etelcalcetide | reversible serum calcium reduction | superior and significantly different | comparable to etelcalcetide | did not increase with the period of treatment
CC[C@@H](NC(=O)[C@@H](CCCNC(=N)N)NC(=O)[C@@H](CCCNC(=N)N)NC(=O)[C@@H](CSSC[C@H](N)C(=O)O)NC(C)=O)C(=O)N[C@H](CCCNC(=N)N)C(=O)N[C@H](CO)C(=O)N[C@H](CCCNC(=N)N)C(N)=O [Compound 31, Ac-c(C)-r-r-(D-Abu)-r-s-r-NH2] (Ac-[dC](Cys(free,S-linked))[dR][dR][dAbu][dR][dS][dR]-NH2) | corresponding reduction | completely reduced | – | – | – | – | – | –
